Here are results for 26 compounds from patent US11590116B2 (THERAVANCE BIOPHARMA R&D IP, LLC, priority 2019, dated 2023).

Where only a bound is given, the exact number is not on record here.

Assay [1] addresses T1, recombinant human ALK5 (TGF-βR1) protein (Homo sapiens, UniProt P36897).
T1 construct: purchased Life Technologies PR9075A
T1 sequence (P36897 34-503): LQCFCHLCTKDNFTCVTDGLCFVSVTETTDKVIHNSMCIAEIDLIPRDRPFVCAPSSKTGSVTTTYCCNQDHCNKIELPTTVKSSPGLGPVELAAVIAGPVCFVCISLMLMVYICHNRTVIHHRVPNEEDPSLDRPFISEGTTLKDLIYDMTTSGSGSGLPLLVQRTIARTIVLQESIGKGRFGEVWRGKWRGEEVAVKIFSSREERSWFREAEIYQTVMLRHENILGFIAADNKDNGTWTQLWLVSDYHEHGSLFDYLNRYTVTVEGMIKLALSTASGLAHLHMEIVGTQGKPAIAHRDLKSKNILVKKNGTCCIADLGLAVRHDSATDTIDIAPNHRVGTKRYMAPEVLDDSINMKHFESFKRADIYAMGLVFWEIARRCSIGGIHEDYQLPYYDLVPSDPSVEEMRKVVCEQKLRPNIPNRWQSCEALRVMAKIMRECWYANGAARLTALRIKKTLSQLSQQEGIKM
In words: Biochemical ALK5 (TGF-βR1) assay to measure pKi (LANCE Ultra ULight kinase assay). The note with it: apparent pKi from pIC50 by Cheng-Prusoff, read-out: ALK5 pKi (converted). The method, boiled down: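 Compounds (10 μM to 25 pM) were preincubated 60 min at room temperature with enzyme, then reactions were started with ATP (125 μM stock, 5× final) and run 60 min at 37 °C. EDTA-containing Eu-anti-phospho-Topo IIα (Thr1342) antibody stopped the reaction; TR-FRET read at 665 nm. pIC50 from 4-parameter fit, converted to pKi via Cheng-Prusoff.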

For assay [2], the system named is TGF-β-stimulated SMAD3 phosphorylation in BEAS-2B cells. In words: Cellular ALK5 potency assay, inhibition of TGF-β stimulated pSMAD3 formation in BEAS-2B cells. The class given is cell-based. The note with it: Homo sapiens; inhibition of TGF-β stimulated pSMAD3 formation, BEAS-2B cells; read-out: BEAS2B pIC50 (converted). The method, boiled down:
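Cells seeded overnight; rinse with supplemented HBSS; compound 1 h at 37 °C; TGF-β 10 ng/mL final, 30 min; lyse; AlphaLISA acceptor and detector beads 2 h apart, read next day. Potency expressed as pIC50.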

Consider `Cc1cccc(-c2n[nH]cc2-c2ccc3ncc(N4CCN[C@H](C)C4)cc3n2)n1` [Compound 249, 7-[(3R)-3-methylpiperazin-1-yl]-2-[3-(6-methyl-2-pyridyl)-1H-pyrazol-4-yl]-1,5-naphthyridine], for which, in assay [1], the Ki was 0.0398 to 0.316 nM. The IC50 in assay [2] was 25.1 to 158 nM.

In the case of `Cc1cccc(-c2n[nH]cc2-c2ccc3ncc(N4CCC[C@H](N(C)C)C4)cc3n2)n1` [Compound 492, (3S)-N,N-dimethyl-1-[6-[3-(6-methyl-2-pyridyl)-1H-pyrazol-4-yl]-1,5-naphthyridin-3-yl]piperidin-3-amine], the Ki in assay [1] was 0.0398 to 0.316 nM. For the same compound, the IC50 in assay [2] is 25.1 to 158 nM.

For the compound `Cc1cccc(-c2[nH]cnc2-c2ccc3ncc(-c4nc(C(=O)OCCNC5CNC5)cs4)cc3c2)n1` [Compound 1254, 2-(azetidin-3-ylamino)ethyl 2-[6-[5-(6-methyl-2-pyridyl)-1H-imidazol-4-yl]-3-quinolyl]thiazole-4-carboxylate], the Ki in assay [1] is less than 0.0316 nM. The IC50 in assay [2] was 200 to 1260 nM.

On to `Cc1cccc(-c2[nH]cnc2-c2ccc3ncc(-c4ccc(C(=O)O[C@@H]5CCN(C)C5)nc4)cc3c2)n1` [Compound 273, (R)-1-methylpyrrolidin-3-yl 5-(6-(5-(6-methylpyridin-2-yl)-1H-imidazol-4-yl)quinolin-3-yl)picolinate], for which the Ki in assay [1] was less than 0.0316 nM. The IC50 in assay [2] is 25.1 to 158 nM.

As to `Cc1cccc(-c2[nH]ncc2-c2ccc3ncc(C(=O)OCC4CCNCC4)cc3n2)n1` [Compound 211, 4-piperidylmethyl 6-[5-(6-methyl-2-pyridyl)-1H-pyrazol-4-yl]-1,5-naphthyridine-3-carboxylate], the Ki in assay [1] was 0.0398 to 0.316 nM. In addition, the IC50 in assay [2] was 25.1 to 158 nM.

For the compound `CN[C@H]1CC[C@@H](OC(=O)c2cnc3ccc(-c4nc[nH]c4-c4cccc(C)n4)cc3c2)CC1` [Compound 1071, [4-(methylamino)cyclohexyl] 6-[5-(6-methyl-2-pyridyl)-1H-imidazol-4-yl]quinoline-3-carboxylate], the Ki in assay [1] is 0.398 to 3.16 nM. In addition, the IC50 in assay [2] is 25.1 to 158 nM.

Consider `Cc1cccc(-c2[nH]cnc2-c2ccc3ncc(-c4ncc(C5=CCNC5)s4)cc3c2)n1` [Compound 1118, 5-(2,5-dihydro-1H-pyrrol-3-yl)-2-[6-[5-(6-methyl-2-pyridyl)-1H-imidazol-4-yl]-3-quinolyl]thiazole], for which the Ki in assay [1] is 0.0398 to 0.316 nM. Moreover, the IC50 in assay [2] is less than 20 nM.

With `Cc1cccc(-c2[nH]cnc2-c2ccc3ncc(C4=CCC(N(C)C)CC4)cc3c2)n1` (stereo not shown) [Compound 629, N,N-dimethyl-4-(6-(5-(6-methylpyridin-2-yl)-1H-imidazol-4-yl)quinolin-3-yl)cyclohex-3-en-1-amine], in assay [1], the Ki was less than 0.0316 nM. In addition, the IC50 in assay [2] is 25.1 to 158 nM.

`Cc1cccc(-c2[nH]cnc2-c2ccc3ncc(-c4ccc(C(=O)OCCN5CCC[C@@H](N)C5)cn4)cc3c2)n1` [Compound 1174, 2-[(3R)-3-amino-1-piperidyl]ethyl 6-[6-[5-(6-methyl-2-pyridyl)-1H-imidazol-4-yl]-3-quinolyl]pyridine-3-carboxylate]: in assay [1], the Ki is 0.0398 to 0.316 nM. For the same compound, in assay [2], the IC50 was 25.1 to 158 nM.

Take `Cc1cccc(-c2[nH]cnc2-c2ccc3ncc(N4CC(CN)C4)cc3c2)n1` [Compound 68, [1-[6-[5-(6-methyl-2-pyridyl)-1H-imidazol-4-yl]-3-quinolyl]azetidin-3-yl]methanamine]: the Ki in assay [1] is 0.0398 to 0.316 nM. In assay [2], the IC50 is less than 20 nM.

`Cc1cccc(-c2[nH]cnc2-c2ccc3ncc(NCCN4CCN[C@@H](CO)C4)cc3c2)n1` [Compound 708, [(2R)-4-[2-[[6-[5-(6-methyl-2-pyridyl)-1H-imidazol-4-yl]-3-quinolyl]amino]ethyl]piperazin-2-yl]methanol]: the Ki in assay [1] is 0.0398 to 0.316 nM. Besides, the IC50 in assay [2] was 200 to 1260 nM.

For the compound `Cc1cccc(-c2[nH]cnc2-c2ccc3ncc(C(=O)OCCN4CCC5(CCNCC5)C4)cc3c2)n1` [Compound 896, 2-(2,8-diazaspiro[4.5]decan-2-yl)ethyl 6-(5-(6-methylpyridin-2-yl)-1H-imidazol-4-yl)quinoline-3-carboxylate], in assay [1], the Ki was 0.0398 to 0.316 nM. In assay [2], the IC50 was 200 to 1260 nM.

As to `Cc1cccc(-c2[nH]nnc2-c2ccc3ncc(N4CCC(N(C)C)C4)cc3c2)n1` (racemic) [Compound 561, rac-(3S)-N,N-dimethyl-1-[6-[5-(6-methyl-2-pyridyl)-1H-triazol-4-yl]-3-quinolyl]pyrrolidin-3-amine], the Ki in assay [1] was less than 0.0316 nM. Besides, in assay [2], the IC50 was 25.1 to 158 nM.

For `CNC1CN(c2cnc3ccc(-c4c[nH]nc4-c4cccc(C)n4)nc3c2)C1` [Compound 94, N-methyl-1-[6-[3-(6-methyl-2-pyridyl)-1H-pyrazol-4-yl]-1,5-naphthyridin-3-yl]azetidin-3-amine], the Ki in assay [1] was 0.0398 to 0.316 nM. Moreover, the IC50 in assay [2] is 25.1 to 158 nM.

With `Cc1cccc(-c2[nH]cnc2-c2ccc3ncc(-c4csc(C(=O)OC[C@H]5CC[C@H](N)CC5)c4)cc3c2)n1` [Compound 1171, (4-aminocyclohexyl)methyl 4-[6-[5-(6-methyl-2-pyridyl)-1H-imidazol-4-yl]-3-quinolyl]thiophene-2-carboxylate], the Ki in assay [1] is less than 0.0316 nM. In addition, the IC50 in assay [2] was 25.1 to 158 nM.

Consider `CNCc1ccnc2ccc(-c3c[nH]nc3-c3cccc(C)n3)nc12` [Compound 829, N-methyl-1-[6-[3-(6-methyl-2-pyridyl)-1H-pyrazol-4-yl]-1,5-naphthyridin-4-yl]methanamine], for which, in assay [1], the Ki is 0.398 to 3.16 nM. Moreover, the IC50 in assay [2] was 25.1 to 158 nM.

As for `Cc1cccc(-c2[nH]cnc2-c2ccc3ncc(-c4cc(C(=O)OCC5CNC5)ccn4)cc3c2)n1` [Compound 1157, azetidin-3-ylmethyl 2-[6-[5-(6-methyl-2-pyridyl)-1H-imidazol-4-yl]-3-quinolyl]pyridine-4-carboxylate], the Ki in assay [1] is 0.0398 to 0.316 nM. The IC50 in assay [2] was 25.1 to 158 nM.

Regarding `Cc1nc(-c2n[nH]cc2-c2ccc3ncc(N4CCN(CCO)CC4)cc3n2)ccc1F` [Compound 509, 2-[4-[6-[3-(5-fluoro-6-methyl-2-pyridyl)-1H-pyrazol-4-yl]-1,5-naphthyridin-3-yl]piperazin-1-yl]ethanol], the Ki in assay [1] is less than 0.0316 nM. In addition, in assay [2], the IC50 was 25.1 to 158 nM.

With `Cc1cccc(-c2n[nH]cc2-c2ccc3ncc(-c4[nH]nc5c4CCNC5)cc3n2)n1` [Compound 622, 2-[3-(6-methyl-2-pyridyl)-1H-pyrazol-4-yl]-7-(4,5,6,7-tetrahydro-2H-pyrazolo[3,4-c]pyridin-3-yl)-1,5-naphthyridine], the Ki in assay [1] is 0.0398 to 0.316 nM. Moreover, the IC50 in assay [2] is 200 to 1260 nM.

Consider `Cc1cccc(-c2[nH]cnc2-c2ccc3ncc(-c4ccnc(C(=O)OCC5CNC5)c4)cc3c2)n1` [Compound 1086, azetidin-3-ylmethyl 4-[6-[5-(6-methyl-2-pyridyl)-1H-imidazol-4-yl]-3-quinolyl]pyridine-2-carboxylate], for which the Ki in assay [1] was 0.0398 to 0.316 nM. Further, in assay [2], the IC50 was 200 to 1260 nM.

Consider `Cc1cccc(-c2[nH]ncc2-c2ccc3nccc(C(=O)OC[C@@H]4CCCCN4)c3c2)n1` [Compound 1085, [(2S)-2-piperidyl]methyl 6-[5-(6-methyl-2-pyridyl)-1H-pyrazol-4-yl]quinoline-4-carboxylate], for which the Ki in assay [1] is 0.398 to 3.16 nM. Also, the IC50 in assay [2] is 25.1 to 158 nM.

`Cc1cccc(-c2[nH]cnc2-c2ccc3ncc(C4=CCN(C(=O)C5CCNCC5)CC4)cc3c2)n1` [Compound 778, [4-[6-[5-(6-methyl-2-pyridyl)-1H-imidazol-4-yl]-3-quinolyl]-3,6-dihydro-2H-pyridin-1-yl]-(4-piperidyl)methanone]: the Ki in assay [1] was 0.0398 to 0.316 nM. In addition, in assay [2], the IC50 was 25.1 to 158 nM.

`COc1n[nH]c(-c2cccc(C)n2)c1-c1ccc2ncc(-c3cccnc3)cc2n1` [Compound 105, 2-(5-methoxy-3-(6-methylpyridin-2-yl)-1H-pyrazol-4-yl)-7-(pyridin-3-yl)-1,5-naphthyridine]: the Ki in assay [1] is 0.0398 to 0.316 nM. The IC50 in assay [2] was 25.1 to 158 nM.

Regarding `Cc1cccc(-c2[nH]cnc2-c2ccc3ncc(C(=O)OCCC4CCNCC4)cc3c2)n1` [Compound 1048, 2-(4-piperidyl)ethyl 6-[5-(6-methyl-2-pyridyl)-1H-imidazol-4-yl]quinoline-3-carboxylate], the Ki in assay [1] is 0.0398 to 0.316 nM. The IC50 in assay [2] was 25.1 to 158 nM.

`Cc1cccc(-c2n[nH]cc2-c2ccc3ncc(-c4cn(Cc5cnc6c(c5)CNCC6)nn4)cc3n2)n1` [Compound 325, 2-[3-(6-methyl-2-pyridyl)-1H-pyrazol-4-yl]-7-[1-(5,6,7,8-tetrahydro-1,6-naphthyridin-3-ylmethyl)triazol-4-yl]-1,5-naphthyridine]: the Ki in assay [1] was less than 0.0316 nM. For the same compound, the IC50 in assay [2] is 200 to 1260 nM.

Consider `Cc1cccc(-c2n[nH]cc2-c2ccc3ncc(N4CCC[C@H]4CO)cc3n2)n1` [Compound 52, [(2S)-1-[6-[3-(6-methyl-2-pyridyl)-1H-pyrazol-4-yl]-1,5-naphthyridin-3-yl]pyrrolidin-2-yl]methanol], for which the Ki in assay [1] was 0.0398 to 0.316 nM. Moreover, the IC50 in assay [2] is 25.1 to 158 nM.
